Assay results from ChEMBL document CHEMBL1201862, “PubChem BioAssay data set” (2004).
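Cultured in 96-well plates, cells were exposed to test compound for 48 hours across five concentrations. At the GI50, growth is halved.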 Active and inactive are the calls of the source. Rule as the data show it: active = GI50 up to about 1.1 µM and inactive = higher.

Legend:
Assay in all cases: NCI-60 cell line screen, 48 h
OVCAR-8 = tested on: OVCAR-8
NCI-H226 = tested on: NCI-H226
SR = tested on: SR
CCRF-CEM = tested on: CCRF-CEM
RXF 393 = tested on: RXF 393
NCI/ADR-RES = tested on: NCI/ADR-RES
LOX IMVI = tested on: LOX IMVI
SK-OV-3 = tested on: SK-OV-3
CAKI-1 = tested on: CAKI-1
SNB-19 = tested on: SNB-19
MOLT-4 = tested on: MOLT-4
SK-MEL-2 = tested on: SK-MEL-2
HT-29 = tested on: HT-29
M14 = tested on: M14
KM12 = tested on: KM12
HOP-62 = tested on: HOP-62
EKVX = tested on: EKVX
SF-268 = tested on: SF-268
OVCAR-5 = tested on: OVCAR-5
SK-MEL-28 = tested on: SK-MEL-28

Compound	GI50 (OVCAR-8)	GI50 (NCI-H226)	GI50 (SR)	GI50 (CCRF-CEM)	GI50 (RXF 393)	GI50 (NCI/ADR-RES)	GI50 (LOX IMVI)	GI50 (SK-OV-3)	GI50 (CAKI-1)	GI50 (SNB-19)	GI50 (MOLT-4)	GI50 (SK-MEL-2)	GI50 (HT-29)	GI50 (M14)	GI50 (KM12)	GI50 (HOP-62)	GI50 (EKVX)	GI50 (SF-268)	GI50 (OVCAR-5)	GI50 (SK-MEL-28)
Cc1cc(=O)n2nc(CSc3nnc(S)s3)sc2n1	> 100 µM (inactive)	> 100 µM (inactive)	> 100 µM (inactive)	> 100 µM (inactive)	> 100 µM (inactive)	> 100 µM (inactive)	> 100 µM (inactive)	> 100 µM (inactive)	> 100 µM (inactive)	> 100 µM (inactive)	> 100 µM (inactive)	> 100 µM (inactive)	> 100 µM (inactive)	> 100 µM (inactive)	> 100 µM (inactive)	> 100 µM (inactive)	> 100 µM (inactive)	> 100 µM (inactive)	> 100 µM (inactive)	> 100 µM (inactive)
O=C1C(=Cc2cccc(O)c2)N=C(c2ccccc2)N1n1c(-c2ccccc2)nc2ccccc2c1=O	31.4 µM (inactive)	0.48 µM (active)	16.4 µM (inactive)	24.3 µM (inactive)	8.28 µM (inactive)	68.5 µM (inactive)	23.4 µM (inactive)	33.3 µM (inactive)	24.7 µM (inactive)	25.9 µM (inactive)	15.9 µM (inactive)		32.6 µM (inactive)	37.2 µM (inactive)	24.9 µM (inactive)		34.9 µM (inactive)	25 µM (inactive)	37.1 µM (inactive)	25.2 µM (inactive)
CC(NNC(=O)c1cc[n+]([BH2-]C#N)cc1)c1ccccc1F (stereo not given)	> 100 µM (inactive)	> 100 µM (inactive)	> 100 µM (inactive)	> 100 µM (inactive)	> 100 µM (inactive)	> 100 µM (inactive)	> 100 µM (inactive)		> 100 µM (inactive)	> 100 µM (inactive)	> 100 µM (inactive)	> 100 µM (inactive)		> 100 µM (inactive)	> 100 µM (inactive)		> 100 µM (inactive)	> 100 µM (inactive)	> 100 µM (inactive)	> 100 µM (inactive)
